In publication PMC3764917 (Journal of medicinal chemistry, 2012):
Counter-ions that a name gives are not always drawn. Values belong to the compound of their own block, whether it stands above or below them.

Tests used:
[1] = biological target: T1, ovine COX-1 (Ovis aries, UniProt P05979); experiment: COX activity, commercial enzyme immunoassay kit
T1 sequence (P05979 25-600): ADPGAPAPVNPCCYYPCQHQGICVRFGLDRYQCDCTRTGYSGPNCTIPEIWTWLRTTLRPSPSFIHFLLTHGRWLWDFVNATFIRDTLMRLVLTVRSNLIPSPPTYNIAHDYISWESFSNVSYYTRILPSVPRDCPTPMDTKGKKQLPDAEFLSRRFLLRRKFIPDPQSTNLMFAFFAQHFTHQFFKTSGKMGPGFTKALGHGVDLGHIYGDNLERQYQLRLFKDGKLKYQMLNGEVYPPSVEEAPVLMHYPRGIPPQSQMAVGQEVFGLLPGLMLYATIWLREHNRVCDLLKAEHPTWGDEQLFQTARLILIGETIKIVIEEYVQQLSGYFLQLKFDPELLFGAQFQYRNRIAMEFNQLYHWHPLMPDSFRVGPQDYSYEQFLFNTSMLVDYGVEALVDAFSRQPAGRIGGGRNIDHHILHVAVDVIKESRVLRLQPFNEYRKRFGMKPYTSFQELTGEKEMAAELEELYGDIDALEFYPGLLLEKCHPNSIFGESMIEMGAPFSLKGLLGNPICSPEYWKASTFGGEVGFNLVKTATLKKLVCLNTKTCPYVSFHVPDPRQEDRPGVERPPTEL

[2] = biological target: T2, human COX-2 (Homo sapiens, UniProt P35354); experiment: COX activity, commercial enzyme immunoassay kit
T2 sequence (P35354 18-604): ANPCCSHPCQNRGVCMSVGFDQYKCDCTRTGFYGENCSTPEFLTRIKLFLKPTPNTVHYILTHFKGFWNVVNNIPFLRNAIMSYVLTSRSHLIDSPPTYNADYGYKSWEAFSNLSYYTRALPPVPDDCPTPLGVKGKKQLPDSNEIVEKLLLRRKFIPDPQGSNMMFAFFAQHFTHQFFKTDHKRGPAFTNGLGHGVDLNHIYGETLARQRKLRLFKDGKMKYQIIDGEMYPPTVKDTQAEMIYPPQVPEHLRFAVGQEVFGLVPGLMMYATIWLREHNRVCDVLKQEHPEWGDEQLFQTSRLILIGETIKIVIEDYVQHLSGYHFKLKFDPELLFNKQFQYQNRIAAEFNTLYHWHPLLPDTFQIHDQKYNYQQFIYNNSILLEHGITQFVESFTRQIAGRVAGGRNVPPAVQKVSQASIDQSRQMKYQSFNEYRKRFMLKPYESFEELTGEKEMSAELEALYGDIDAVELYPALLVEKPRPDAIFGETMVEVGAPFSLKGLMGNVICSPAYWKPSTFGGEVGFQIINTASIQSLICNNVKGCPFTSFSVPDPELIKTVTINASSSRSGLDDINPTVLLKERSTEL

[3] = biological target: T3, FAAH (Rattus norvegicus, UniProt P97612); experiment: FAAH activity: [3H]anandamide hydrolysis by total rat brain homogenates; assay type: biochemical
T3 sequence (P97612 1-579): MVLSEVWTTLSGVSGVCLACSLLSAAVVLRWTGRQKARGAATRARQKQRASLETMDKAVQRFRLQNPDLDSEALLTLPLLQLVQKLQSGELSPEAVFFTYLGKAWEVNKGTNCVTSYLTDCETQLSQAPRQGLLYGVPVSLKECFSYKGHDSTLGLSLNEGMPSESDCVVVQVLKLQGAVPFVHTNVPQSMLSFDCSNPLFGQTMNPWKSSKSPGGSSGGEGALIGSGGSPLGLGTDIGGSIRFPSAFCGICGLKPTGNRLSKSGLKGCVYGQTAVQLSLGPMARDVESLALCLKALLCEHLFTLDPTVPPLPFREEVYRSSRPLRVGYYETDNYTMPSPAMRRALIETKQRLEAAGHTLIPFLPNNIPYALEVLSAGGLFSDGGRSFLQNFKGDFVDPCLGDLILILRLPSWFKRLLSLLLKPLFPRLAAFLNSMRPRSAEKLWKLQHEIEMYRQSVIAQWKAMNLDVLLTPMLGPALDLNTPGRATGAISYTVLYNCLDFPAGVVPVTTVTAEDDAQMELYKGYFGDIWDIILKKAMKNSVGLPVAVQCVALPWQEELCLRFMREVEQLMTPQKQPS

[4] = humans; cited from earlier work
[5] = test system: COX-2; details: oxygen electrode assay, arachidonic acid as substrate; cited from earlier work

SMILES: COc1ccc(C(=O)n2c3ccc(Cl)cc3c3ccc(C(C)C(=O)O)cc32)cc1 (centres unmarked) [Compound 15e, 2-(6-chloro-9-(4-methoxybenzoyl)-9H-carbazol-2-yl)propanoic acid]
COX-1 inhibition, result in words [1]: did not inhibit
COX-2 inhibition, result in words [2]: did not inhibit

SMILES: CC(C(=O)Nc1ccccc1)c1ccc2c(c1)[nH]c1ccc(Cl)cc12 (centres unmarked) [Compound 4b, 2-(6-chloro-9H-carbazol-2-yl)-N-phenylpropanamide]
COX-1 inhibition, result in words [1]: lack of activity
COX-2 inhibition, result in words [2]: lack of activity

SMILES: CC(C(=O)O)c1ccc2c3cc(Cl)ccc3n(C(=O)c3cccc(Cl)c3)c2c1 (centres unmarked) [Compound 15f, 2-(6-chloro-9-(3-chlorobenzoyl)-9H-carbazol-2-yl)propanoic acid]
COX-1 inhibition, result in words [1]: lost
COX-2 inhibition, result in words [2]: lost

SMILES: CC(=O)n1c2ccc(Cl)cc2c2ccc(C(C)C(=O)O)cc21 (centres unmarked) [Compound 15a, 2-(9-acetyl-6-chloro-9H-carbazol-2-yl)propanoic acid]
FAAH inhibition, result in words [3]: did not show any inhibitory potency
COX-1 inhibition, result in words [1]: did not show any inhibitory potency
COX-2 inhibition, result in words [2]: did not show any inhibitory potency

SMILES: CC(C(=O)O)c1ccc2c(c1)[nH]c1ccc(Cl)cc12 (centres unmarked) [Compound 1, carprofen]
ulcerogenic side effects compared to other NSAIDs [4]: reduced ulcerogenic side effects

SMILES: CC(C(=O)NCCO)c1ccc2c(c1)[nH]c1ccc(Cl)cc12 (centres unmarked) [Compound 4a, 2-(6-chloro-9H-carbazol-2-yl)-N-(2-hydroxyethyl)propanamide]
COX-1 inhibition, result in words [1]: lack of activity
COX-2 inhibition, result in words [2]: lack of activity

FAAH inhibition, result in words [3]: no inhibition
SMILES: CNC(=O)n1c2ccc(Cl)cc2c2ccc(C(C)C(=O)O)cc21 (centres unmarked) [Compound 10b, 2-[6-chloro-9-(methylcarbamoyl)carbazol-2-yl]propanoic acid]

SMILES: CC(C(=O)O)c1ccc2c3cc(Cl)ccc3n(C(=O)c3ccc(Cl)c(Cl)c3)c2c1 (centres unmarked) [Compound 15h, 2-(6-chloro-9-(3,4-dichlorobenzoyl)-9H-carbazol-2-yl)propanoic acid]
FAAH inhibition, result in words [3]: total loss of activity
COX-1 inhibition, result in words [1]: total loss of activity
COX-2 inhibition, result in words [2]: total loss of activity

IC50 [3]: 5 µM
SMILES: CC(C(=O)O)c1ccc2c(c1)[nH]c1ccccc12 (centres unmarked) [Compound 2, 2-(9H-carbazol-2-yl)propanoic acid]

increase in FAAH potency compared to 1 ([3]; ratio of FAAH IC50 values versus compound 1): 3 fold
SMILES: CC(C(=O)O)c1ccc2c3cc(Cl)ccc3n(Cc3ccccc3)c2c1 (centres unmarked) [Compound 6b, 2-(9-benzyl-6-chloro-9H-carbazol-2-yl)propanoic acid]

FAAH inhibition, result in words [3]: very weak
SMILES: CC(C)Cc1ccc(C(C)C(=O)O)cc1 (centres unmarked) [ibuprofen, reference compound]

SMILES: CC(C(=O)O)c1ccc2c3cc(Cl)ccc3n(C(=O)c3ccc(F)cc3)c2c1 (centres unmarked) [Compound 15d, 2-(6-chloro-9-(4-fluorobenzoyl)-9H-carbazol-2-yl)propanoic acid]
COX-1 inhibition, result in words [1]: did not inhibit
COX-2 inhibition, result in words [2]: did not inhibit

SMILES: Cc1cccnc1NC(=O)C(C)c1ccc(CC(C)C)cc1 (centres unmarked) [ibu-am5, N-(3-methylpyridin-2-yl)-2-(4-isobutylphenyl)-propionamide]
COX-2 inhibition, result in words [5]: inactive

SMILES: CC(C(=O)O)c1ccc2c3cc(Cl)ccc3n(C(=O)c3ccccc3Cl)c2c1 (centres unmarked) [Compound 15g, 2-(6-chloro-9-(2-chlorobenzoyl)-9H-carbazol-2-yl)propanoic acid]
COX-1 inhibition, result in words [1]: lost
COX-2 inhibition, result in words [2]: lost

SMILES: CC(C(=O)O)c1ccc2c3cc(Cl)ccc3n(C(=O)c3c[nH]cn3)c2c1 (centres unmarked) [Compound 15j, 2-(6-chloro-9-(1H-imidazole-4-carbonyl)-9H-carbazol-2-yl)propanoic acid hydrochloride]
IC50 [3]: 6 µM
COX-2 inhibition, result in words [2]: no relevant inhibition

SMILES: COC(=O)C(C)c1ccc2c(c1)[nH]c1ccc(Cl)cc12 (centres unmarked) [Compound 3, Methyl 2-(6-chloro-9H-carbazol-2-yl)propanoate]
COX-1 inhibition, result in words [1]: lack of activity
COX-2 inhibition, result in words [2]: lack of activity

FAAH inhibition, result in words [3]: no inhibition
SMILES: CCCCNC(=O)n1c2ccc(Cl)cc2c2ccc(C(C)C(=O)O)cc21 (centres unmarked) [Compound 10c, 2-(9-(butylcarbamoyl)-6-chloro-9H-carbazol-2-yl)propanoic acid]

SMILES: CCCCCCOC(=O)n1c2ccc(Cl)cc2c2ccc(C(C)C(=O)O)cc21 (centres unmarked) [Compound 12, 2-(6-chloro-9-((hexyloxy)carbonyl)-9H-carbazol-2-yl)propanoic acid]
weaker potency against FAAH compared to 10a ([3]; ratio of FAAH IC50 values versus 10a): 10 fold

IC50 [3]: 3 µM
SMILES: CCCCCCNC(=O)n1c2ccc(Cl)cc2c2ccc(C(C)C(=O)O)cc21 (centres unmarked) [Compound 10a, 2-(6-chloro-9-(hexylcarbamoyl)-9H-carbazol-2-yl)propanoic acid]

SMILES: CC(C(=O)O)c1ccc2c3cc(Cl)ccc3n(C(=O)c3cscn3)c2c1 (centres unmarked) [Compound 15k, 2-(6-chloro-9-(thiazole-4-carbonyl)-9H-carbazol-2-yl)propanoic acid]
FAAH inhibition, result in words [3]: detrimental
COX-1 inhibition, result in words [1]: detrimental
COX-2 inhibition, result in words [2]: detrimental

SMILES: COc1ccccc1Cn1c2ccc(Cl)cc2c2ccc(C(C)C(=O)O)cc21 (centres unmarked) [Compound 6g, 2-(6-chloro-9-(2-methoxybenzyl)-9H-carbazol-2-yl)propanoic acid]
FAAH activity at 30 μM, result in words ([3]; 30 μM): no activity
